Laboratory results: the NIST ThermoML archive (doi:10.1021/je034203p)

Test: xn = mol fraction of the nth substance listed
Settings: 298.15 K, 101.3 kPa, Liquid; for viscosity: Capillary tube (Ostwald / Ubbelohde) method

CC(C)=O [acetone] + ClC(Cl)=C(Cl)Cl
x2 = 0
Settings	mass density [kg/m3]	viscosity [mPa·s]
–	780.8	0.3121

CC(C)=O [acetone] + ClC=C(Cl)Cl
x2 = 0
Settings	mass density [kg/m3]	viscosity [mPa·s]
–	780.8	0.3121

c1ccccc1 [benzene] + ClC(Cl)=C(Cl)Cl
x2 = 0
Settings	mass density [kg/m3]	viscosity [mPa·s]
–	869.7	0.608

c1ccccc1 [benzene] + ClC=C(Cl)Cl
x2 = 0
Settings	mass density [kg/m3]	viscosity [mPa·s]
–	869.7	0.608

CCCCO [butan-1-ol] + ClC(Cl)=C(Cl)Cl
x2 = 0
Settings	mass density [kg/m3]	viscosity [mPa·s]
–	806.3	2.538

CCCCO [butan-1-ol] + ClC=C(Cl)Cl
x2 = 0
Settings	mass density [kg/m3]	viscosity [mPa·s]
–	806.3	2.538

CCC(C)O (centres undefined) [butan-2-ol] + ClC(Cl)=C(Cl)Cl
x2 = 0
Settings	mass density [kg/m3]	viscosity [mPa·s]
–	804.8	3.103

CCC(C)O (centres undefined) [butan-2-ol] + ClC=C(Cl)Cl
x2 = 0
Settings	mass density [kg/m3]	viscosity [mPa·s]
–	804.8	3.103

CCC(C)=O [butanone] + ClC(Cl)=C(Cl)Cl
x2 = 0
Settings	mass density [kg/m3]	viscosity [mPa·s]
–	797.4	0.4011

CCC(C)=O [butanone] + ClC=C(Cl)Cl
x2 = 0
Settings	mass density [kg/m3]	viscosity [mPa·s]
–	797.4	0.4011

CCO [ethanol] + ClC(Cl)=C(Cl)Cl
x2 = 0
Settings	mass density [kg/m3]	viscosity [mPa·s]
–	787.4	1.112

CCO [ethanol] + ClC=C(Cl)Cl
x2 = 0
Settings	mass density [kg/m3]	viscosity [mPa·s]
–	787.4	1.112

CCOC(C)=O [ethyl acetate] + ClC(Cl)=C(Cl)Cl
x2 = 0
Settings	mass density [kg/m3]	viscosity [mPa·s]
–	894	0.4274

CCOC(C)=O [ethyl acetate] + ClC=C(Cl)Cl
x2 = 0
Settings	mass density [kg/m3]	viscosity [mPa·s]
–	894	0.4274

CO [methanol] + ClC(Cl)=C(Cl)Cl
x2 = 0
Settings	mass density [kg/m3]	viscosity [mPa·s]
–	788.1	0.5482

CO [methanol] + ClC=C(Cl)Cl
x2 = 0
Settings	mass density [kg/m3]	viscosity [mPa·s]
–	788.1	0.5482

COC(C)=O [methyl ethanoate] + ClC(Cl)=C(Cl)Cl
x2 = 0
Settings	mass density [kg/m3]	viscosity [mPa·s]
–	923.9	0.3711

COC(C)=O [methyl ethanoate] + ClC=C(Cl)Cl
x2 = 0
Settings	mass density [kg/m3]	viscosity [mPa·s]
–	923.9	0.3711

CCCO [propan-1-ol] + ClC(Cl)=C(Cl)Cl
x2 = 0
Settings	mass density [kg/m3]	viscosity [mPa·s]
–	800	1.954

CCCO [propan-1-ol] + ClC=C(Cl)Cl
x2 = 0
Settings	mass density [kg/m3]	viscosity [mPa·s]
–	800	1.954

CC(C)O [propan-2-ol] + ClC(Cl)=C(Cl)Cl
x2 = 0
Settings	mass density [kg/m3]	viscosity [mPa·s]
–	784.3	2.044

CC(C)O [propan-2-ol] + ClC=C(Cl)Cl
x2 = 0
Settings	mass density [kg/m3]	viscosity [mPa·s]
–	784.3	2.044

ClC(Cl)=C(Cl)Cl [tetrachloroethene] + CC(C)=O
Settings	mass density [kg/m3]	viscosity [mPa·s]
x1 = 0.0742	862.2	0.3537
x1 = 0.1529	943.8	0.398
x1 = 0.2362	1025.5	0.4442
x1 = 0.3247	1107.7	0.4942
x1 = 0.4192	1189.6	0.5459
x1 = 0.5201	1272.3	0.6021
x1 = 0.6279	1356.2	0.6581
x1 = 0.7428	1440.3	0.7167
x1 = 0.8671	1524.6	0.7802
x1 = 1	1610.2	0.8474

ClC(Cl)=C(Cl)Cl [tetrachloroethene] + CC(C)O
Settings	mass density [kg/m3]	viscosity [mPa·s]
x1 = 0.0763	864.9	1.855
x1 = 0.1567	946.4	1.676
x1 = 0.2417	1026.7	1.51
x1 = 0.3313	1107.5	1.364
x1 = 0.4266	1189.3	1.236
x1 = 0.5276	1271.6	1.123
x1 = 0.6349	1355.4	1.025
x1 = 0.7486	1437.6	0.9401
x1 = 0.8705	1523.6	0.8824
x1 = 1	1610.2	0.8474

ClC(Cl)=C(Cl)Cl [tetrachloroethene] + CCC(C)=O
Settings	mass density [kg/m3]	viscosity [mPa·s]
x1 = 0.0888	875.6	0.4563
x1 = 0.1798	955.1	0.5095
x1 = 0.2732	1034.4	0.5626
x1 = 0.3692	1114.1	0.6147
x1 = 0.4672	1193.9	0.6642
x1 = 0.5688	1275.5	0.7069
x1 = 0.6719	1356.5	0.7447
x1 = 0.7786	1441.7	0.7802
x1 = 0.8873	1524.2	0.8161
x1 = 1	1610.2	0.8474

ClC(Cl)=C(Cl)Cl [tetrachloroethene] + CCC(C)O
Settings	mass density [kg/m3]	viscosity [mPa·s]
x1 = 0.0903	883.6	2.66
x1 = 0.1825	962.6	2.28
x1 = 0.2769	1042.5	1.944
x1 = 0.3734	1121.1	1.667
x1 = 0.4718	1201.2	1.453
x1 = 0.5733	1281.9	1.262
x1 = 0.6759	1362.6	1.119
x1 = 0.7817	1444.3	1.005
x1 = 0.8891	1525.8	0.9029
x1 = 1	1610.2	0.8474

ClC(Cl)=C(Cl)Cl [tetrachloroethene] + CCCCO
Settings	mass density [kg/m3]	viscosity [mPa·s]
x1 = 0.0901	885.2	2.255
x1 = 0.1823	964.3	1.986
x1 = 0.2766	1043.5	1.717
x1 = 0.3727	1122.5	1.496
x1 = 0.4713	1201.7	1.314
x1 = 0.5727	1283	1.158
x1 = 0.6759	1364.2	1.045
x1 = 0.7809	1444.6	0.9519
x1 = 0.8891	1526	0.8894
x1 = 1	1610.2	0.8474

ClC(Cl)=C(Cl)Cl [tetrachloroethene] + CCCO
Settings	mass density [kg/m3]	viscosity [mPa·s]
x1 = 0.0749	879	1.79
x1 = 0.1541	958.4	1.632
x1 = 0.2379	1038.5	1.488
x1 = 0.3269	1117.4	1.35
x1 = 0.4214	1197.5	1.218
x1 = 0.5229	1278.9	1.11
x1 = 0.6302	1360.9	1.011
x1 = 0.745	1442.8	0.9253
x1 = 0.8679	1525.7	0.8657
x1 = 1	1610.2	0.8474

ClC(Cl)=C(Cl)Cl [tetrachloroethene] + CCO
Settings	mass density [kg/m3]	viscosity [mPa·s]
x1 = 0.0593	868.1	1.073
x1 = 0.1243	949.6	1.04
x1 = 0.1957	1029.4	1.007
x1 = 0.2746	1111.3	0.9767
x1 = 0.3619	1191.8	0.9475
x1 = 0.4601	1273.7	0.9189
x1 = 0.57	1356	0.8939
x1 = 0.6944	1440	0.8729
x1 = 0.8364	1524.9	0.8551
x1 = 1	1610.2	0.8474

ClC(Cl)=C(Cl)Cl [tetrachloroethene] + CCOC(C)=O
Settings	mass density [kg/m3]	viscosity [mPa·s]
x1 = 0.0962	961.2	0.4946
x1 = 0.1932	1030.8	0.5525
x1 = 0.291	1100.6	0.6095
x1 = 0.3899	1171	0.6633
x1 = 0.4894	1241.8	0.711
x1 = 0.5901	1313.6	0.7481
x1 = 0.6911	1385.7	0.7788
x1 = 0.7937	1460	0.8078
x1 = 0.8964	1534.5	0.8295
x1 = 1	1610.2	0.8474
